Results on one compound are retold here after US20240139210A1, “TREATMENT OF NF-KB-MEDIATED DISEASE” (ReveraGen BioPharma, Inc., priority 2020, published 2024).

For this data set, the system named is ambulant boys aged 4 to <7 years with DMD. The data set can be described thus: VBP15-004 bone turnover biomarkers. Type of data set: in vivo, human. The settings on record: for CTX, difference vs. prednisone / Osteocalcin, difference vs. prednisone / P1NP, difference vs. prednisone: Week 24.

On to `C[C@@H]1C[C@H]2[C@@H]3CCC4=CC(=O)C=C[C@]4(C)C3=CC[C@]2(C)[C@@]1(O)C(=O)CO` [Vamorolone, 17α,21-dihydroxy-16α-methylpregna-1,4,9(11)-triene-3,20-dione], for which, for the setting “Vamorolone 2.0 mg (N = 17)”, the “Osteocalcin, mean (SEM) change at Week 24” value is reported as 8.3 (3.1) ng/ml; the “Procollagen 1 N-Terminal Propeptide (P1NP), mean (SEM) change at Week 24” value is reported as 48 (27) ng/mL; the “Type I Collagen C-Telopeptides (CTX), mean (SEM) change at Week 24” value is given as 177 (52) pg/mL. Further, under “Vamorolone 2.0 mg”, the “CTX, difference vs. prednisone” value was 477 (p < 0.001) pg/mL; the “Osteocalcin, difference vs. prednisone” value was 23.5 ng/mL; the “P1NP, difference vs. prednisone” value amounted to 182 ng/mL. For the same compound, under “Vamorolone 6.0 mg (N = 23)”, the “Osteocalcin, mean (SEM) change at Week 24” value is 1.7 (2.8) ng/ml; the “Procollagen 1 N-Terminal Propeptide (P1NP), mean (SEM) change at Week 24” value is given as −11 (22) ng/mL; the “Type I Collagen C-Telopeptides (CTX), mean (SEM) change at Week 24” value is reported as 90 (44) pg/mL. Also, under “Vamorolone 6.0 mg”, the “CTX, difference vs. prednisone” value is on record as 390 (p < 0.001) pg/mL; the “Osteocalcin, difference vs. prednisone” value was 16.9 ng/mL; the “P1NP, difference vs. prednisone” value was 124 (p < 0.001) ng/mL.
